Reference: PubChem BioAssay AID1963986 (Molecular Pharmacology Branch, DTP, NCI, 2024)

Test system: 171881-019-R-J1-PDC tumor spheroid viability
Test: Anticancer human tumor 171881-019-R-J1-PDC patient-derived invasive breast carcinoma cell line growth inhibition [PI3K]
Details: spheroids with HUVEC and MSC; for IC50: curve of first compound; for viability, T/C: stronger effect = lower value
Outline: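 Multi-cell spheroids combine tumor cells with HUVEC and human MSCs, treated with targeted agents alone or with inavolisib, alpelisib, duvelisib or copanlisib. Concentrations fall in half-log steps from at or near clinical Cmax, or from 10 microM where Cmax is unknown; viability read-out.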

[1] = second compound 0.00316 µM, first compound 0.0316 µM
[2] = second compound 0.00316 µM, first compound 0.1 µM
[3] = second compound 0.00316 µM, first compound 0.316 µM
[4] = second compound 0.00316 µM, first compound 1 µM
[5] = second compound 0.00316 µM, first compound 3.16 µM
[6] = second compound 0.00316 µM, first compound 10 µM
[7] = second compound 0.01 µM, first compound 0.0316 µM
[8] = second compound 0.01 µM, first compound 0.1 µM
[9] = second compound 0.01 µM, first compound 0.316 µM
[10] = second compound 0.01 µM, first compound 1 µM
[11] = second compound 0.01 µM, first compound 3.16 µM
[12] = second compound 0.01 µM, first compound 10 µM
[13] = second compound 0.0316 µM, first compound 0.0316 µM
[14] = second compound 0.0316 µM, first compound 0.1 µM
[15] = second compound 0.0316 µM, first compound 0.316 µM
[16] = second compound 0.0316 µM, first compound 1 µM
[17] = second compound 0.0316 µM, first compound 3.16 µM
[18] = second compound 0.0316 µM, first compound 10 µM
[19] = second compound 0.1 µM, first compound 0.0316 µM
[20] = second compound 0.1 µM, first compound 0.1 µM
[21] = second compound 0.1 µM, first compound 0.316 µM
[22] = second compound 0.1 µM, first compound 1 µM
[23] = second compound 0.1 µM, first compound 3.16 µM
[24] = second compound 0.1 µM, first compound 10 µM
[25] = second compound 0.316 µM, first compound 0.0316 µM
[26] = second compound 0.316 µM, first compound 0.1 µM
[27] = second compound 0.316 µM, first compound 0.316 µM
[28] = second compound 0.316 µM, first compound 1 µM
[29] = second compound 0.316 µM, first compound 3.16 µM
[30] = second compound 0.316 µM, first compound 10 µM
[31] = second compound 1 µM, first compound 0.0316 µM
[32] = second compound 1 µM, first compound 0.1 µM
[33] = second compound 1 µM, first compound 0.316 µM
[34] = second compound 1 µM, first compound 1 µM
[35] = second compound 1 µM, first compound 3.16 µM
[36] = second compound 1 µM, first compound 10 µM
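Further: spheroids exposed to compound for 7 days before viability read.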
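Wherever viability, T/C is given: 100% = DMSO vehicle-treated spheroids.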

C=CC(=O)N1CCN(c2nc(=O)n(-c3c(C)ccnc3C(C)C)c3nc(-c4c(O)cccc4F)c(F)cc23)C(C)C1 (stereo unspecified) + COc1c(OCCCN2CCOCC2)ccc2c3n(c(=NC(=O)c4cnc(N)nc4)nc12)CCN3
IC50 (second compound 0.00316 µM): 5310 nM
IC50 (second compound 0.01 µM): < 31.6 nM
IC50 (second compound 0.0316 µM): < 31.6 nM
IC50 (second compound 0.1 µM): < 31.6 nM
IC50 (second compound 0.316 µM): < 31.6 nM
IC50 (second compound 1 µM): < 31.6 nM
viability, T/C [1]: 63.5%
viability, T/C [2]: 70%
viability, T/C [3]: 50%
viability, T/C [4]: 66.9%
viability, T/C [5]: 60.3%
viability, T/C [6]: 36.9%
viability, T/C [7]: 45.4%
viability, T/C [8]: 49.9%
viability, T/C [9]: 49%
viability, T/C [10]: 51.3%
viability, T/C [11]: 43.8%
viability, T/C [12]: 28.4%
viability, T/C [13]: 24.2%
viability, T/C [14]: 25.5%
viability, T/C [15]: 24.3%
viability, T/C [16]: 26.2%
viability, T/C [17]: 25.6%
viability, T/C [18]: 13.3%
viability, T/C [19]: 7.99%
viability, T/C [20]: 8.18%
viability, T/C [21]: 9.55%
viability, T/C [22]: 9.16%
viability, T/C [23]: 8.78%
viability, T/C [24]: 4.72%
viability, T/C [25]: 1.86%
viability, T/C [26]: 1.72%
viability, T/C [27]: 2.68%
viability, T/C [28]: 2.25%
viability, T/C [29]: 2.28%
viability, T/C [30]: 2.01%
viability, T/C [31]: 0.96%
viability, T/C [32]: 0.93%
viability, T/C [33]: 1.05%
viability, T/C [34]: 1.41%
viability, T/C [35]: 1.76%
viability, T/C [36]: 3.63%

CC(Cn1ccc(-c2ccc(C#N)c(Cl)c2)n1)NC(=O)c1cc(C(C)O)[nH]n1 (stereo unspecified) + COc1c(OCCCN2CCOCC2)ccc2c3n(c(=NC(=O)c4cnc(N)nc4)nc12)CCN3
IC50 (second compound 0.00316 µM): > 10000 nM
IC50 (second compound 0.01 µM): < 31.6 nM
IC50 (second compound 0.0316 µM): < 31.6 nM
IC50 (second compound 0.1 µM): < 31.6 nM
IC50 (second compound 0.316 µM): < 31.6 nM
IC50 (second compound 1 µM): < 31.6 nM
viability, T/C [1]: 64.2%
viability, T/C [2]: 66.1%
viability, T/C [3]: 55%
viability, T/C [4]: 62%
viability, T/C [5]: 64.5%
viability, T/C [6]: 48.1%
viability, T/C [7]: 48.6%
viability, T/C [8]: 52.4%
viability, T/C [9]: 45.4%
viability, T/C [10]: 51.1%
viability, T/C [11]: 45%
viability, T/C [12]: 32.2%
viability, T/C [13]: 22.5%
viability, T/C [14]: 25.8%
viability, T/C [15]: 21.9%
viability, T/C [16]: 22.7%
viability, T/C [17]: 24.5%
viability, T/C [18]: 17.4%
viability, T/C [19]: 6.84%
viability, T/C [20]: 7.08%
viability, T/C [21]: 6.29%
viability, T/C [22]: 6.57%
viability, T/C [23]: 7.04%
viability, T/C [24]: 5.04%
viability, T/C [25]: 1.65%
viability, T/C [26]: 1.42%
viability, T/C [27]: 1.54%
viability, T/C [28]: 1.44%
viability, T/C [29]: 1.55%
viability, T/C [30]: 2.61%
viability, T/C [31]: 1.17%
viability, T/C [32]: 0.9%
viability, T/C [33]: 2.01%
viability, T/C [34]: 1.22%
viability, T/C [35]: 2.13%
viability, T/C [36]: 3.1%

Cn1nccc1Nc1nccc(-c2ccn(C(CO)c3ccc(Cl)c(F)c3)c(=O)c2)n1 (stereo unspecified) + COc1c(OCCCN2CCOCC2)ccc2c3n(c(=NC(=O)c4cnc(N)nc4)nc12)CCN3
IC50 (second compound 0.00316 µM): 38.2 nM
IC50 (second compound 0.01 µM): < 31.6 nM
IC50 (second compound 0.0316 µM): < 31.6 nM
IC50 (second compound 0.1 µM): < 31.6 nM
IC50 (second compound 0.316 µM): < 31.6 nM
IC50 (second compound 1 µM): < 31.6 nM
viability, T/C [1]: 51.4%
viability, T/C [2]: 42.5%
viability, T/C [3]: 28.6%
viability, T/C [4]: 18.1%
viability, T/C [5]: 14.3%
viability, T/C [6]: 11%
viability, T/C [7]: 44.5%
viability, T/C [8]: 32.1%
viability, T/C [9]: 21.4%
viability, T/C [10]: 12.2%
viability, T/C [11]: 9.48%
viability, T/C [12]: 7.46%
viability, T/C [13]: 19.3%
viability, T/C [14]: 14.8%
viability, T/C [15]: 8.54%
viability, T/C [16]: 5.82%
viability, T/C [17]: 4.42%
viability, T/C [18]: 2.75%
viability, T/C [19]: 6.44%
viability, T/C [20]: 4.39%
viability, T/C [21]: 3.29%
viability, T/C [22]: 2.41%
viability, T/C [23]: 2.36%
viability, T/C [24]: 0.87%
viability, T/C [25]: 1.92%
viability, T/C [26]: 1.3%
viability, T/C [27]: 1.85%
viability, T/C [28]: 1.35%
viability, T/C [29]: 0.41%
viability, T/C [30]: 0.33%
viability, T/C [31]: 0.78%
viability, T/C [32]: 0.82%
viability, T/C [33]: 0.76%
viability, T/C [34]: 0.86%
viability, T/C [35]: 1.32%
viability, T/C [36]: 0.5%
